Reference: patent publication US11306082B2, “Esters of dihydrotetrabenazine” (Foresee Pharmaceuticals Co., Ltd., priority 2017, dated 2022)
In brackets after ≈: the same amount, converted by molar mass.

Key:
VMAT2 [1] = target: VMAT2 (Bos taurus, UniProt Q27963); conditions: Scherman et al., 1983; cited from earlier work
[2] = Solubility in pharmaceutical acceptable organic solvents; format: physicochemical; conditions: for solubility: organic solvent or mixture, thermodynamic from solid, 37° C.
Method: Previously, non-aqueous solvents, such as organic solvents, have long been utilized in injectable pharmaceutical products to dissolve water-insoluble drugs. Here, the solubility of compounds of the present application in various organic solvents were tested. The compound suspensions in various pharmaceutical acceptable organic solvents, including dimethylacetamide (DMAc), Dimethyl sulfoxide (DMSO), triacetin (TA), were stirred at 37° C. at designed time interval. At the designed time point, 0.5 mL aliquots were taken and centrifuged at 14,000 rpm for 2 min without temperature control. The supernatant was diluted with ACN and then analyzed by HPLC to determine the amount of dissolved compounds.

[3] = Color stability in organic solvents at 37° C.; format: physicochemical; conditions: incubation at 37° C. for 7 days, organic solvents (FIG. 1)
[4] = target: Vesicular Monoamine Transporter Isoform 2 (VMAT2) (UniProt Q01827); assay: VMAT2 competition binding assay ([3H]dihydrotetrabenazine, whole brain membranes); conditions: for IC50: read-out: VMAT2 binding affinity IC50, [3H]Dihydrotetrabenazine 10 nM, 30 min at 25° C.; for Ki: read-out: VMAT2 binding affinity Ki, Cheng-Prusoff from IC50
Method: IC50 values were determined by a non-linear, least squares regression analysis using MathIQ™ (ID Business Solutions Ltd., UK).

[5] = Aqueous solubility of compounds; format: physicochemical; conditions: for aqueous solubility compared with compound IV: all tested conditions; for solubility: aqueous buffer, thermodynamic from solid, 37° C.
Method: Compound suspensions (2 mg/m L) in various aqueous solutions, including 10 mM pH 4.0 citrate-saline buffer, 10 mM pH 5.0 citrate-saline buffer, 10 mM pH 5.8 PBS, 10 mM pH 7.4 PBS, 10 mM pH 8.5 borate-saline buffer, pure water and serum, were stirred at 37° C. for 2-3 days. Daily, 0.5 to 1 mL aliquots were taken and centrifuged at 14,000 rpm for 2 min without temperature control. The supernatant was analyzed by HPLC to determine the amount of dissolved compounds.

[6] = system: porcine liver esterase (PLE); assay: Enzymatic ester hydrolysis via porcine liver esterase; format: in vitro ADME
[7] = Solubility in pharmaceutical acceptable oils; format: physicochemical; conditions: for solubility in pharmaceutical acceptable oils (in words): castor, peanut, soybean oil; for solubility: oil or lipid, thermodynamic from solid, 37° C.
Method: Conventionally, fatty acids are used to conjugate with a drug to enhance drug's lipophilicity to increase its solubility in oils. The solubility of compounds of the present application in various oils were tested. The suspension of compounds in various pharmaceutical acceptable oils, including castor oil, sesame oil, cottonseed oil, peanut oil and soybean oil, were stirred at 37° C. for 2-3 days. At designed time point, about 200 to 300 μL aliquots were taken and centrifuged at 14,000 rpm for 2 min without temperature control. The supernatant was carefully withdrawn and extracted with 9 folds of ACN. The mixture was then vortexed for 30 sec and subsequently centrifuged at 14,000 rpm for 2 min without temperature control. The supernatant (300 uL) was taken and diluted with 1 fold of isopropanol (IPA) and then analyzed by HPLC to determine the amount of dissolved compounds. The oil without compound after same extraction/dilution step was used as control. […] The higher oil solubility can be advantageously used to make long acting or sustained release formulation to deliver the active compounds.

[8] = human liver assay, response in application Ser. No. 11/937,445; cited from earlier work
VMAT2 [9] = target: VMAT2 (Rattus norvegicus, UniProt Q01827); conditions: as disclosed in U.S. Pat. No. 8,039,627; read-out: VMAT2 binding affinity, Ki; cited from earlier work
VMAT2 [10] = conditions: see 17 of the Declaration; cited from earlier work
[11] = borate-saline buffer, Borate (10 mM, pH 8.5)
[12] = citrate-saline buffer, Citrate buffer (10 mM, pH 5.0)

VMAT2 (Bos taurus, UniProt Q27963), sequence (Q27963 whole entry): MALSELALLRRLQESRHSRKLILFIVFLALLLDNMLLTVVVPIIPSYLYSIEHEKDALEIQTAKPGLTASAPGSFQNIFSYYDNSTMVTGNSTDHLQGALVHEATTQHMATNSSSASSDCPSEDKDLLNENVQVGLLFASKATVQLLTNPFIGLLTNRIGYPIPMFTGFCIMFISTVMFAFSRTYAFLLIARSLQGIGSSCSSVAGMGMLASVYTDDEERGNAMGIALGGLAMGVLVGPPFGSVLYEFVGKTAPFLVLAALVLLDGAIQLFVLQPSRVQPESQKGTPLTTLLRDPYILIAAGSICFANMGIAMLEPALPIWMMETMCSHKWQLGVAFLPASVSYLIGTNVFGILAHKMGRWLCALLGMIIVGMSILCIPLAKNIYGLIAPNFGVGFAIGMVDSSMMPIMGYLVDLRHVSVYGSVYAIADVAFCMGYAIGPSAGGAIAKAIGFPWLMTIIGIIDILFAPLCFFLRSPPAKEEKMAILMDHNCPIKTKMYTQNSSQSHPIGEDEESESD
VMAT2 (Rattus norvegicus, UniProt Q01827), sequence (Q01827 whole entry): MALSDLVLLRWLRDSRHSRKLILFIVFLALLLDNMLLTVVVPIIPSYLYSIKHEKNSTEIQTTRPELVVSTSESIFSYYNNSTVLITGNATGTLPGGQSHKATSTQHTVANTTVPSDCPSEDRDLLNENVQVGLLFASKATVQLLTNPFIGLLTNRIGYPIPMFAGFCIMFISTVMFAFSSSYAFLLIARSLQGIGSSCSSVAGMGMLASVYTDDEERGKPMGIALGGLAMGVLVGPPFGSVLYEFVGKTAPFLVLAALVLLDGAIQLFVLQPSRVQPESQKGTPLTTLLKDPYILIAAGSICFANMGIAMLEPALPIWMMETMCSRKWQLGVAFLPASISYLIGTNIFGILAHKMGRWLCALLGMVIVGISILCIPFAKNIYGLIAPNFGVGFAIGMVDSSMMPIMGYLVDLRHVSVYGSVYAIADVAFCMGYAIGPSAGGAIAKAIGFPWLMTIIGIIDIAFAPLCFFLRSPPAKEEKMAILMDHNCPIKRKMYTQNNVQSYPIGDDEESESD

SMILES | solubility ([2]; DMAc) | solubility ([2]; DMSO) | solubility ([2]; Triacetin) | color change in organic solvents [3] | IC50 [4] | Ki [4] | aqueous solubility compared with compound IV [5] | solubility ([5]; PBS (10 mM, pH 5.8)) | solubility ([5]; PBS (10 mM, pH 7.4)) | solubility [5, 11] | solubility [5, 12] | solubility in pharmaceutical acceptable oils (in words) [7] | solubility ([7]; Castor oil) | solubility ([7]; Peanut oil) | solubility ([7]; Soybean oil) | conversion to (+)-α-DHTBZ [8] | other results
COc1cc2c(cc1OC)C1CC(=O)C(CC(C)C)CN1CC2 (racemic) [TBZ, 3-isobutyl-9,10,dimethoxy-1,3,4,6,7,11b-hexahydro-2H-pyrido[2,1-a]isoquinolin-2-one] | – | – | – | – | – | – | – | – | – | – | – | – | – | – | – | – | IC50 (VMAT2 [1]): 3.2 nM
CCCCCCCCCCCCCCCC(=O)O[C@@H]1C[C@@H]2c3cc(OC)c(OC)cc3CCN2C[C@H]1CC(C)C [Compd 1-1, (2R,3R, 11bR)-3-isobutyl-9,10-dimethoxy-1,3,4,6,7,11b-hexahydro-2H-pyrido[2,1-a]isoquinolin-2-yl palmitate] | 513000 µg/mL (≈ 919 mM) | 7800 µg/mL (≈ 14 mM) | 29900 µg/mL (≈ 53.6 mM) | no or minimal color change | > 10000 nM | > 10000 nM | significantly lower aqueous solubility | < 1 µg/mL | 1 µg/mL (≈ 0.00179 mM) | 32.6 µg/mL (≈ 0.0584 mM) | < 1 µg/mL | fair to good solubility | 370000 µg/mL (≈ 663 mM) | 266000 µg/mL (≈ 478 mM) | 277000 µg/mL (≈ 496 mM) | – | solubility in organic solvents (in words) ([2]; all tested solvent (DMSO, DMAc, triacetin)): good solubility; hydrolysis to release (+)-α-DHTBZ (in words) ([6]; PLE/compound ratio of 5 or above): can be hydrolyzed; (+)-α-DHTBZ released by ester hydrolysis ([6]; PLE:compound 1-1 1:1, incubation 80 min, 37° C.): BQL
CCCCCCCCCCCCCCCCCCCCCC(=O)O[C@@H]1C[C@@H]2c3cc(OC)c(OC)cc3CCN2C[C@H]1CC(C)C [Compd 1-2, (2R,3R, 11bR)-3-isobutyl-9,10-dimethoxy-1,3,4,6,7,11b-hexahydro-2H-pyrido[2,1 a]isoquinolin-2-yl behenate] | 8810 µg/mL (≈ 13.7 mM) | 150 µg/mL (≈ 0.234 mM) | – | no or minimal color change | > 10000 nM | > 10000 nM | significantly lower aqueous solubility | < 1 µg/mL | < 1 µg/mL | 1.7 µg/mL (≈ 0.00265 mM) | < 1 µg/mL | fair to good solubility | 31400 µg/mL (≈ 48.9 mM) | 70200 µg/mL (≈ 109 mM) | 96400 µg/mL (≈ 150 mM) | – | –
COc1cc2c(cc1OC)[C@H]1C[C@@H](O)[C@H](CC(C)C)CN1CC2 [Compd IV, (2R, 3R, 11bR)-3-isobutyl-9,10-dimethoxy-1,3,4,6,7,11b-hexahydro-2H-pyrido[2,1-a]isoquinolin-2-ol, reference compound] | 555000 µg/mL (≈ 1740 mM) | 410000 µg/mL (≈ 1280 mM) | 26100 µg/mL (≈ 81.7 mM) | significant color change | – | – | – | 1380 µg/mL (≈ 4.32 mM) | 244 µg/mL (≈ 0.763 mM) | 140 µg/mL (≈ 0.439 mM) | > 2000 µg/mL | fair to good solubility | 30000 µg/mL (≈ 93.9 mM) | 10100 µg/mL (≈ 31.6 mM) | 8000 µg/mL (≈ 25 mM) | – | –
COc1cc2c(cc1OC)[C@H]1C[C@@H](OC(=O)[C@@H](N)C(C)C)[C@H](CC(C)C)CN1CC2 [VBZ, (S)-2-amino-3-methyl-butyric acid (2R, 3R, 11bR)-3-isobutyl-9,10-dimethoxy-1,3,4,6,7,11b-hexahydro-2H-pyrido[2,1-a]isoquinolin-2-yl] | – | – | – | – | – | – | – | – | – | – | – | – | – | – | – | can release the active (+)-α-DHTBZ | Ki (VMAT2 [9]): 187 nM
COc1cc2c(cc1OC)C1CC(OC(C)=O)C(CC(C)C)CN1CC2 (stereo not shown) [acetate ester of Kilbourn] | – | – | – | – | – | – | – | – | – | – | – | – | – | – | – | no conversion | Ki (VMAT2 [10]): 16 nM
